Measured values published in patent publication US20190224343A1, “CLEAVABLE COATING MATERIAL HAVING MICROBIAL FUNCTIONALITY” (ORIGINAL G B.V., priority 2012, published 2019).

Tested on: Staphylococcus aureus (clinical isolate)
Experiment: Fluorescence imaging of coated orthopaedic plates, screws and catheters implanted in a human cadaver ankle after incubation with S. aureus isolate or NaCl
Settings: implants incubated with S. aureus, imaged 24 hours after implantation, excitation 710 nm, emission 800 nm
Excerpt: Orthopaedic plates, screws and catheters were coated with the polymer coating with compositions according to step (g). For example a polymer coating 1 g (i) was coated onto orthopaedic plates, screws and catheters in a continuous process.
First a solution of the polymer prepared in Example 1 g (i) was made by dissolving the polymer coating in water and then the plate and catheter were drawn through the solution of the polymer coating at a rate of 1 to 2 meters/second into an infrared dying oven of approximately 1 meter in length at about 100° C. The objects were completely covered indicating the application of a substantially uniform coating. This process was done according to the standard procedures in U.S. Pat. No. 7,442,205, Stents and methods for preparing stents from wires having hydrogel coating layers thereon. […]
Imaging of the objects implanted according to example 6 was performed 24 hours after implantation using an intra-operative clinical multispectral fluorescence camera (T3-imaging system, SurgOptix BV, Groningen, The Netherlands) and the IVIS Spectrum (excitation: 710 nm, emission: 800 nm, acquisition time 5 s, binning 4, F-stop 2, FOV 21.2).
The results obtained from the IVIS Spectrum and IVIS Lumina II were analyzed with Living Image 4.2. […] Signal intensity was determined by drawing regions of interests (ROI's) and measuring average counts in these regions. […]

With `CC1(C)C(=CC=C2CCCC(C=CC3=[N+](CCCCCC(=O)[O-])c4ccc(S(=O)(=O)[O-])cc4C3(C)C)=C2Oc2ccc(S(=O)(=O)[O-])cc2)N(CCCCS(=O)(=O)[O-])c2ccc(S(=O)(=O)[O-])cc21.[Na+].[Na+].[Na+].[Na+]` [IRDye 800CW] the “near infrared signal (net counts, background corrected)” value was 1×10^5±4.2×10^4 counts.
